Measured values reported in patent US20250177458A1, “USES OF BIFIDOBACTERIUM LONGUM MICROORGANISMS HAVING THE CAPACITY TO DEGRADE BOTH HMO AND PLANT-DERIVED GLYCANS” (SOCIETE DES PRODUITS NESTLE S.A., priority 2022, published 2025).

Test system: transitional B. longum isolate NCC5004
Assay: in vitro tube fermentation of fecal sample supplemented with isolate NCC5004, isolate-specific qPCR
Type: cell-based, Bifidobacterium longum
Conditions: HMO 5 g/L as single carbon source, toddler fecal community, after 24 hr and 48 hrs
Procedure: All bacterial strains retrieved from the Nestlé Culture Collection (NCC) were reactivated from a freeze-dried stock using two successive culturing steps (16 h, 37° C., anaerobiosis) in MRS (De Man, Rogosa and Sharpe) media supplemented with 0.05% cysteine (MRSc). Reactivated cultures were then centrifuged, washed, and resuspended in 1 volume of PBS.
For in vitro tube fermentation experiments, pulverized or homogenized stool samples were mixed 10-fold by adding PBS/glycerol (1/10) (w/v) before centrifugation at 600×g for 2 minutes. The slurry and pellet were then stored at −80° C. Frozen slurry of a fecal sample was thawed from storage and then use for the in vitro tube fermentation assays. The fecal slurry was inoculated with media based on that disclosed in Gibson et al. (Applied and Environmental Microbiology; 1988; 54(11); 2750-2755) with some modifications, specifically the exclusion of any carbon source. […]
The in vitro tube fermentation assays (n=3 per testing group) were set up at 37° C. with gentle stirring in an anaerobic environment (gas flow of pure N2 and a mix of N2, H2, and CO2 to ensure anaerobic conditions). Aliquots (0.5 mL) from fermentation tubes were taken and DNA was extracted, purified and analyzed at the time points indicated (0 hr, 24 hr and 48 hr). […]

2′ fucosyllactose [2′FL]
growth of NCC5004 (qPCR absolute abundance) compared to baseline (0 hrs): significant growth

3-fucosyllactose [3 FL]
growth of NCC5004 (qPCR absolute abundance) compared to baseline (0 hrs): significant growth
